Literature values as cited in patent US20160008277A1, “CO-PACKAGED DRUG PRODUCTS” (Lightlake Therapeutics Inc., priority 2014, published 2016).

Assays:
mouse = details: intravenous; cited from earlier work
rat = details: intravenous; cited from earlier work
newborn rats = details: acute subcutaneous; cited from earlier work

## C=CCN1CC[C@]23c4c5ccc(O)c4O[C@H]2C(=O)CC[C@@]3(O)[C@H]1C5.Cl [naloxone hydrochloride, 17-allyl-4,5a-epoxy-3,14-dihydroxymorphinan-6-one hydrochloride]
mouse
  LD50: 150 ± 5 mg/kg
rat
  LD50: 109 ± 4 mg/kg
Newborn rats
  LD50 (95% CL): 260 (228-296) mg/kg
